Test results as given in PubChem BioAssay (NCI).
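Interpolation was linear, between the two tested concentrations surrounding the appropriate level; five concentrations were tested over 48 hours in 96-well plates. At the GI50, growth is halved. TGI denotes the concentration required for complete inhibition of growth.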

What was measured:
Assay in all cases: DTP human tumour cell line panel, 48 h
A549 NSCLC = system: A549 NSCLC
CCRF-CEM leukemia = system: CCRF-CEM leukemia
HCC-2998 colon = system: HCC-2998 colon
K-562 leukemia = system: K-562 leukemia
SF-539 CNS = system: SF-539 CNS
SK-OV-3 ovarian = system: SK-OV-3 ovarian
SNB-19 CNS = system: SNB-19 CNS
SNB-75 CNS = system: SNB-75 CNS
SW-620 colon = system: SW-620 colon
DU-145 prostate = system: DU-145 prostate

| Compound | TGI (A549 NSCLC) | TGI (CCRF-CEM leukemia) | TGI (HCC-2998 colon) | TGI (K-562 leukemia) | TGI (SF-539 CNS) | TGI (SK-OV-3 ovarian) | TGI (SNB-19 CNS) | TGI (SNB-75 CNS) | TGI (SW-620 colon) | TGI (DU-145 prostate) | GI50 (A549 NSCLC) | GI50 (CCRF-CEM leukemia) | GI50 (DU-145 prostate) | GI50 (HCC-2998 colon) | GI50 (SF-539 CNS) | GI50 (SK-OV-3 ovarian) | GI50 (SNB-19 CNS) | GI50 (SNB-75 CNS) | GI50 (SW-620 colon) | GI50 (K-562 leukemia) |
| --- | --- | --- | --- | --- | --- | --- | --- | --- | --- | --- | --- | --- | --- | --- | --- | --- | --- | --- | --- | --- |
| CC[N+](C)(CC)CC(C)(C)C(=O)/C=C/c1ccc(/C=C/C(=O)C(C)(C)C[N+](C)(CC)CC)cc1 | > 100 µM | > 100 µM | > 100 µM | > 100 µM | > 100 µM | > 100 µM | > 100 µM | > 100 µM | > 100 µM |  |  |  |  |  |  |  |  |  |  |  |
| Cc1nc2sccn2c1C(=O)NC(=O)Nc1ccc(Cl)cc1 | > 100 µM | > 100 µM | > 100 µM | > 100 µM | > 100 µM |  | > 100 µM | 50.8 µM | > 100 µM |  |  |  |  |  |  |  |  |  |  |  |
| O=C1C2C3C=C4c5ccccc5N(c5ccccc5)C4(C2C(=O)N1c1ccc(Br)cc1)[C@H]1C(=O)N(c2ccc(Br)cc2)C(=O)[C@@H]31 (some centres undefined) | > 100 µM | > 100 µM |  | > 100 µM | > 100 µM | > 100 µM | > 100 µM | > 100 µM | > 100 µM |  |  |  |  |  |  |  |  |  |  |  |
| CC12CCC3c4cc(Br)c(O)c(Br)c4CCC3C1CCC2O (centres undefined) | 40.9 µM | 75.8 µM | 25.3 µM | 64.6 µM | 36.3 µM | 51.4 µM |  | 37.5 µM | 33 µM | > 100 µM |  |  |  |  |  |  |  |  |  |  |
| CCCCCCCCCCCCCC(=O)CSCCNC(=O)CCNC(=O)[C@@H](O)C(C)(C)COP(=O)(O)OP(=O)(O)OCC1OC(n2cnc3c(N)ncnc32)C(O)C1OP(=O)(O)O (some centres undefined) | 45.9 µM | 99.2 µM | 35.7 µM |  | 29.8 µM | 27.8 µM | 35.2 µM | 18.2 µM | 55.5 µM |  |  |  |  |  |  |  |  |  |  |  |
| Cn1c(=O)c2[nH]cnc2n(CC(N)=O)c1=O | > 100 µM | > 100 µM |  | > 100 µM | > 100 µM | > 100 µM | > 100 µM | > 100 µM | > 100 µM |  |  |  |  |  |  |  |  |  |  |  |
| CNS(=O)(=O)OCC1OC(n2cnc3c(N)ncnc32)C(O)C1O (centres undefined) | > 100 µM | > 100 µM | > 100 µM |  | > 100 µM | > 100 µM | > 100 µM | > 100 µM | > 100 µM | > 100 µM | > 100 µM | > 100 µM | > 100 µM | > 100 µM | > 100 µM | > 100 µM | > 100 µM | > 100 µM | > 100 µM |  |
| O=C1c2ccccc2C(=O)c2c(NCC3CO3)ccc(NCC3CO3)c21 (centres undefined) | 58.8 µM |  | > 81.4 µM | > 100 µM | 6.82 µM | > 47 µM | > 39.3 µM | > 100 µM | 6.04 µM | 30.2 µM |  |  |  |  |  |  |  |  |  |  |
| O=C(NCc1ccco1)c1cccc(NC2=C(Cl)C(=O)N(Cc3ccccc3)C2=O)c1 | > 100 µM |  | 25.6 µM | > 100 µM | 15 µM | > 100 µM | > 100 µM | 87.2 µM | > 100 µM | 24.7 µM | 19.9 µM |  | 5.3 µM | 10.8 µM | 3.53 µM | 45.8 µM | 23.2 µM | 14.1 µM | 11.5 µM | 5.24 µM |
| CCOC(=O)c1cnn2c3ccccc3n(S(=O)(=O)c3ccc(OC)cc3)c12 | > 100 µM | > 100 µM | 30.1 µM | > 100 µM | 0.868 µM | > 100 µM | > 100 µM |  | > 100 µM | > 24.2 µM | 0.483 µM | 0.257 µM | 0.395 µM | 0.349 µM | 0.252 µM | 0.786 µM | 0.712 µM |  | 0.269 µM | 0.0553 µM |
| CN(C)CCNC(=O)c1cccc2ccc(-c3ccc(-c4ccccc4)cc3)nc12 | 7.66 µM | 11.5 µM | 3.3 µM | 5.64 µM | 3.31 µM | 31.5 µM | 25.1 µM | 6.11 µM | 4.74 µM |  |  |  |  |  |  |  |  |  |  |  |
| COC(=O)/C=c1\s/c(=C\C(=O)OC)c2ccccc12 | > 100 µM | > 100 µM | > 100 µM | > 100 µM | > 100 µM | > 100 µM | > 100 µM | > 100 µM | > 100 µM |  |  |  |  |  |  |  |  |  |  |  |
| Cc1ccc(C)c(NC(=O)CC2SC(=Nc3ccccc3Cl)NC2=O)c1 (centres undefined) | > 100 µM | > 100 µM | > 100 µM |  | > 100 µM | > 100 µM | > 100 µM | > 100 µM | > 100 µM |  |  |  |  |  |  |  |  |  |  |  |
| CCN(CC)CCn1[nH]c2c3ccc(=O)cc3sc3c(NCCN)ccc1c32 | 14.5 µM | 0.719 µM |  | 1.42 µM | 1.72 µM | 3.74 µM | 4.29 µM | 3.61 µM | 4.77 µM |  |  |  |  |  |  |  |  |  |  |  |
| CCCCCCCC(=O)OCC(=O)[C@]1(O)Cc2c(O)c3c(c(O)c2[C@@H](OC2CC(N)C(O)C(C)O2)C1)C(=O)c1c(OC)cccc1C3=O (some centres undefined) |  |  | 0.767 µM |  | 1 µM | 0.879 µM | 1.25 µM |  | 1.15 µM | 0.284 µM |  |  | 0.0266 µM | 0.137 µM | 0.166 µM | 0.135 µM | 0.0601 µM |  | 0.0403 µM |  |
| NNC(=O)c1ccc(OCc2nc3ccccc3[nH]2)cc1 | > 100 µM |  |  | > 100 µM | > 100 µM | > 100 µM | > 100 µM |  | > 100 µM | > 100 µM |  |  |  |  |  |  |  |  |  |  |
| C=C(C)C(=O)O[C@@H]1C/C(C)=C\[C@H](OC(C)=O)C[C@](C)(O)/C=C2/OC(=O)C(COC(C)=O)=C21 | > 23.3 µM |  | 1.64 µM | 0.879 µM | > 28.5 µM | 18.7 µM | 41.8 µM | 16 µM | 1.93 µM | 7.13 µM |  |  |  |  |  |  |  |  |  |  |
| C=CCOC(=O)C1CCC(=O)N1C(=O)C(Cl)Cl (centres undefined) | > 100 µM | > 100 µM | > 100 µM | > 100 µM |  | > 100 µM | > 100 µM | > 100 µM | > 100 µM |  |  |  |  |  |  |  |  |  |  |  |
| N#Cc1ccc2cc3c(cc2c1)OCO3 |  | > 100 µM | > 100 µM | > 100 µM | > 100 µM | > 100 µM | > 100 µM | 74.3 µM |  |  |  |  |  |  |  |  |  |  |  |  |
| COC1C2c3cc4c(cc3CC(C#N)(c3ccccc32)N1C(=O)c1ccccc1)OCO4 (centres undefined) |  | > 100 µM | > 100 µM | > 100 µM | > 100 µM | > 100 µM | > 100 µM | > 100 µM | > 100 µM |  |  |  |  |  |  |  |  |  |  |  |
| O=C(CCc1nnc2s/c(=C\c3ccccc3Cl)c(=O)n12)Nc1cc(Cl)ccc1Cl | > 100 µM | > 100 µM | > 100 µM | > 100 µM | > 100 µM | > 100 µM | > 100 µM |  | > 100 µM |  |  |  |  |  |  |  |  |  |  |  |
| CN(/N=C/c1cccc2cccnc12)c1c([N+](=O)[O-])cc([N+](=O)[O-])cc1[N+](=O)[O-] | > 100 µM |  | > 100 µM | > 100 µM | > 100 µM | > 100 µM | > 100 µM | > 100 µM | > 100 µM |  |  |  |  |  |  |  |  |  |  |  |
